Assay results reported in patent US20240270821A1, “GIP/GLP1/GCG TRI-RECEPTOR AGONISTS AND USES THEREOF” (priority 2023, published 2024).
Read-outs that look alike come from different tables or passages of the source. Starred links: 1 amine or outer side, 2 acyl side, 3 side chain; linkers in the order of their positions; H or OH if unused. Non-standard residues stand in square brackets, D forms with d. Residues, ends and D or L forms follow the SMILES beside them. Groups on a side chain read outwards from the residue. *: point of attachment. C18 diacid = O=C(O)CCCCCCCCCCCCCCCCC(=O)*; αMePhe(2-F) = C[C@](N)(Cc1ccccc1F)C(=O)O; γGlu = O=C(O)[C@H](CCC(=O)[*:2])N[*:1]; αMe4Pal = C[C@](N)(Cc1ccncc1)C(=O)O; αMeY = C[C@](N)(Cc1ccc(O)cc1)C(=O)O; 4Pal = N[C@@H](Cc1ccncc1)C(=O)O; αMeL = CC(C)C[C@](C)(N)C(=O)O; αMeS = C[C@](N)(CO)C(=O)O; Orn = NCCC[C@H](N)C(=O)O; AEEA = NCCOCCOCC(=O)O; Aib = CC(C)(N)C(=O)O

Columns and labels:
Type in all cases: cell-based
hGLP-1R [1] = molecular target: T1, hGLP-1R (Homo sapiens, UniProt P43220); assay: Functional cAMP activity in the presence of 1% HSA; details: read-out: cAMP Rel EC50, hGLP-1R
hGIPR [2] = molecular target: T2, hGIPR (Homo sapiens, UniProt P48546); assay: Functional cAMP activation in the presence of 0.1% casein (no HSA); details: read-out: Relative cAMP EC50, hGIPR;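 note: intracellular cAMP rise after 30 min at 37 °C read by HTRF against a standard curve, scaled between buffer alone (0%) and top control ligand concentration (100%), four-parameter fit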
T2 sequence (P48546 22-466): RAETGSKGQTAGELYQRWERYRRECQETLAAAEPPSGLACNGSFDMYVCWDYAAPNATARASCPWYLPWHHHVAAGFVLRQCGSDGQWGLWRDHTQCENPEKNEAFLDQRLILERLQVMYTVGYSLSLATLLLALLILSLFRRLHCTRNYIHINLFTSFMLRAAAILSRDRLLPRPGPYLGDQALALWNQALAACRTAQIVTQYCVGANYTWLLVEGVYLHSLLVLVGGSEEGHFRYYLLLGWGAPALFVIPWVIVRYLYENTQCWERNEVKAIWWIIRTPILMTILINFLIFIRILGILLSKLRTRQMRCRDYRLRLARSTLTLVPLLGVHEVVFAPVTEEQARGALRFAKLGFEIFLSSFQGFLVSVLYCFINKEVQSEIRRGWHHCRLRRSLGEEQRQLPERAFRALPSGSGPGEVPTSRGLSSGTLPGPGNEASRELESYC

human GcgR = human GcgR (Homo sapiens, UniProt P47871); assay: Functional cAMP activity in the presence of 1% HSA; details: read-out: cAMP Rel EC50, hGcgR
hGcgR = hGcgR (Homo sapiens, UniProt P47871); assay: Functional cAMP activation in the presence of 0.1% casein (no HSA); details: read-out: Relative cAMP EC50, hGcgR;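 note: intracellular cAMP rise after 30 min at 37 °C, read by HTRF against a cAMP standard curve, scaled from buffer only (0%) to maximal control ligand response (100%)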
hGLP-1R [3] = molecular target: T1, hGLP-1R; assay: as above; details: read-out: Relative cAMP EC50, hGLP-1R
hGIPR [4] = molecular target: T2, hGIPR; assay: Functional cAMP activity in the presence of 1% HSA; details: read-out: cAMP Rel EC50, hGIPR
[5] = 0.1% casein, no HSA, geometric mean
[6] = in the presence of 0.1% casein (no HSA), geometric mean
[7] = HEK-293 clonal cell line, 1% HSA, geometric mean of relative EC50
[8] = in the presence of 0.1% casein (no HSA), geometric mean of relative EC50
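Throughout, for Relative cAMP EC50, hGLP-1R: intracellular cAMP rise after 30 min at 37 °C read by HTRF, normalized between buffer only (0%) and maximal control ligand (100%), four-parameter variable-slope fit.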

T1 sequence (P43220 24-463): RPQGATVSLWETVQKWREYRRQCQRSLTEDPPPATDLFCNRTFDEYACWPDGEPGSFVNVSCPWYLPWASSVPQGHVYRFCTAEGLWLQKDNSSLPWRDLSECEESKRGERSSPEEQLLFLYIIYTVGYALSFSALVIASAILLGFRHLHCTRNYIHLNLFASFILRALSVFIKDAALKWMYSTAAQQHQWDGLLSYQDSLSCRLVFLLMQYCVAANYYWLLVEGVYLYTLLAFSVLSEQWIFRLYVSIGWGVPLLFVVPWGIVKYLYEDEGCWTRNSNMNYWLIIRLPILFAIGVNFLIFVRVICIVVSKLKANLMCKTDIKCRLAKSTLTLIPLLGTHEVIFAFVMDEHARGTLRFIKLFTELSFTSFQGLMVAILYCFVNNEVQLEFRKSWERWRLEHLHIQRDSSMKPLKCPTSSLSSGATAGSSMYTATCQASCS
hGcgR, sequence (P47871 26-477): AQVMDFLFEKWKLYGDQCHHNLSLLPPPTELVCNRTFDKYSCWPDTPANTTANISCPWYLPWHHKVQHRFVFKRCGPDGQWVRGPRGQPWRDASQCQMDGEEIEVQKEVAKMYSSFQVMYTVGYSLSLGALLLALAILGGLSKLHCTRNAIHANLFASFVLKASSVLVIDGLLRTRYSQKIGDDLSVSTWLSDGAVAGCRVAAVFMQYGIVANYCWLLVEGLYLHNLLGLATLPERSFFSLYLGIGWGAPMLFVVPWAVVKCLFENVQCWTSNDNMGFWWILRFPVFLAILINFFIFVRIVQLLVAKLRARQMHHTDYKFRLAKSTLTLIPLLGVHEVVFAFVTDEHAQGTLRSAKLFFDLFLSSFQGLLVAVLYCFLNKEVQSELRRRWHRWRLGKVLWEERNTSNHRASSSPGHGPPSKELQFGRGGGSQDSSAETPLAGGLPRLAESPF
human GcgR, sequence (P47871 26-477): as above

| Molecule | EC50 (hGLP-1R [1]) [nM] | EC50 (human GcgR) [nM] | EC50 (hGIPR [4]) [nM] | EC50 (hGIPR [2]; [6]) [nM] | EC50 (hGcgR; [6]) [nM] | EC50 (hGLP-1R [3]; [6]) [nM] | EC50 (hGIPR [2]) [nM] | EC50 (hGcgR) [nM] | EC50 (hGLP-1R [3]) [nM] | further results |
| --- | --- | --- | --- | --- | --- | --- | --- | --- | --- | --- |
| H-Y[Aib]QGT[αMePhe(2-F)]TSD[4Pal][αMeS]I[αMeL]LD[Orn]K([AEEA-γGlu-C18 diacid])AQ[αMe4Pal]EFI[dE][αMeY]LIEGGPPS[Aib][Orn]PPP[Orn]GE-NH2 [Example 1195] | 44.2 | 242 | 0.637 | – | – | – | – | – | – | EC50 (hGIPR [2]; [5]): 0.00708 nM; EC50 (hGcgR; [5]): 1.74 nM; EC50 (hGLP-1R [3]; [5]): 0.367 nM |
| H-Y[Aib]QGT[αMePhe(2-F)]TSD[4Pal][αMeS]I[αMeL]LD[Orn]QAQ[αMe4Pal]EFI[dE][αMeY]LVEGGPSSGAPPPSGS-NH2 [Example 1231] | 1.22 | 17.1 | 0.00994 | – | – | – | – | – | – | EC50 (hGIPR [2]; [5]): 0.0146 nM; EC50 (hGcgR; [5]): 15.7 nM; EC50 (hGLP-1R [3]; [5]): 1.23 nM |
| CC[C@H](C)[C@H](NC(=O)[C@H](CC(C)C)NC(=O)[C@H](Cc1ccc(O)cc1)NC(=O)[C@H](CCC(=O)O)NC(=O)[C@@H](NC(=O)[C@H](Cc1ccccc1)NC(=O)[C@H](CCC(=O)O)NC(=O)[C@](C)(Cc1ccncc1)NC(=O)[C@H](CCC(N)=O)NC(=O)[C@H](C)NC(=O)[C@H](CCCCNC(=O)CC[C@H](NC(=O)CC[C@H](NC(=O)CCCCCCCCCCCCCCCCC(=O)O)C(=O)O)C(=O)O)NC(=O)[C@H](CCCN)NC(=O)[C@H](CC(=O)O)NC(=O)[C@H](CC(C)C)NC(=O)[C@](C)(CC(C)C)NC(=O)[C@H](CCCN)NC(=O)[C@H](CO)NC(=O)[C@H](Cc1ccncc1)NC(=O)[C@H](CC(=O)O)NC(=O)[C@H](CO)NC(=O)[C@@H](NC(=O)[C@H](Cc1ccccc1)NC(=O)[C@@H](NC(=O)CNC(=O)[C@H](CCC(N)=O)NC(=O)C(C)(C)NC(=O)[C@@H](N)Cc1ccc(O)cc1)[C@@H](C)O)[C@@H](C)O)[C@@H](C)CC)C(=O)N[C@@H](C)C(=O)NCC(=O)NCC(=O)N1CCC[C@H]1C(=O)N[C@@H](CO)C(=O)N[C@@H](CO)C(=O)NCC(=O)N[C@@H](C)C(=O)N1CCC[C@H]1C(=O)N1CCC[C@H]1C(=O)N1CCC[C@H]1C(=O)N[C@@H](CO)C(=O)NCC(=O)N[C@@H](CO)C(=O)N[C@@H](CCC(=O)O)C(=O)N[C@@H](CCC(=O)O)C(N)=O [Example 1001] | 295 | 1170 | 20 | 0.4 | 22.5 | 4.59 | – | – | – | – |
| H-Y[Aib]QGT[αMePhe(2-F)]TSD[4Pal]SILLDKK([γGlu-γGlu-C18 diacid])AQ[Aib]AFIE[αMeY]LEEGGPSSGAPPPSGTE-NH2 [Example 551] | 38.2 | 210 | 1.88 | – | – | – | 0.0173 | 1.74 | 0.303 | – |
| H-Y[Aib]QGT[αMePhe(2-F)]TSD[4Pal][αMeS]I[αMeL]LD[Orn]K([AEEA-γGlu-γGlu-C18 diacid])AQ[αMe4Pal]EFI[dE][αMeY]LIEGGPSSGAPPPSGGGE-NH2 [Example 1180] | 35.6 | 205 | 0.341 | 0.00602 | 3.16 | 0.445 | – | – | – | – |
| CC[C@H](C)[C@H](NC(=O)[C@H](Cc1ccccc1)NC(=O)[C@H](CCCN)NC(=O)C(C)(C)NC(=O)[C@H](CCC(N)=O)NC(=O)[C@H](C)NC(=O)[C@H](CCCCNC(=O)COCCOCCNC(=O)CC[C@H](NC(=O)CCCCCCCCCCCCCCCCC(=O)O)C(=O)O)NC(=O)[C@H](CCCN)NC(=O)[C@H](CC(=O)O)NC(=O)[C@H](CC(C)C)NC(=O)[C@](C)(CC(C)C)NC(=O)[C@@H](NC(=O)[C@](C)(CO)NC(=O)[C@H](Cc1ccncc1)NC(=O)[C@H](CC(=O)O)NC(=O)[C@H](CO)NC(=O)[C@@H](NC(=O)[C@](C)(Cc1ccccc1F)NC(=O)[C@@H](NC(=O)CNC(=O)[C@H](CCC(N)=O)NC(=O)C(C)(C)NC(=O)[C@@H](N)Cc1ccc(O)cc1)[C@@H](C)O)[C@@H](C)O)[C@@H](C)CC)C(=O)N[C@H](CCC(=O)O)C(=O)N[C@@](C)(Cc1ccc(O)cc1)C(=O)N[C@@H](CC(C)C)C(=O)N[C@@H](CC(C)C)C(=O)N[C@@H](CCC(=O)O)C(=O)NCC(=O)NCC(=O)N1CCC[C@H]1C(=O)N[C@@H](CO)C(=O)N[C@@H](CO)C(=O)NC(C)(C)C(=O)N[C@@H](CCC(=O)O)C(=O)N1CCC[C@H]1C(=O)N1CCC[C@H]1C(=O)N1CCC[C@H]1C(=O)N[C@@H](CCC(=O)O)C(N)=O [Example 380] (H-Y[Aib]QGT[αMePhe(2-F)]TSD[4Pal][αMeS]I[αMeL]LD[Orn]K([AEEA-γGlu-C18 diacid])AQ[Aib][Orn]FI[dE][αMeY]LLEGGPSS[Aib]EPPPE-NH2) | – | – | – | 0.0346 | 1.17 | 0.354 | – | – | – | EC50 (hGLP-1R [1]; HEK-293 clonal cells expressing hGLP-1R, in the presence of 1% HSA, geometric mean of relative EC50): 30.6 nM; EC50 (human GcgR; HEK-293 clonal cells expressing hGcgR, in the presence of 1% HSA, geometric mean of relative EC50): 150 nM; EC50 (hGIPR [4]; HEK-293 clonal cells expressing hGIPR, in the presence of 1% HSA, geometric mean of relative EC50): 7.77 nM |
| CC[C@H](C)[C@H](NC(=O)[C@H](Cc1ccccc1)NC(=O)[C@H](C)NC(=O)C(C)(C)NC(=O)[C@H](CCC(N)=O)NC(=O)[C@H](C)NC(=O)[C@H](CCCCNC(=O)COCCOCCNC(=O)CC[C@H](NC(=O)CCCCCCCCCCCCCCCCC(=O)O)C(=O)O)NC(=O)[C@H](CCCCN)NC(=O)[C@H](CC(=O)O)NC(=O)[C@H](CC(C)C)NC(=O)[C@](C)(CC(C)C)NC(=O)[C@@H](NC(=O)[C@H](CO)NC(=O)[C@H](Cc1ccncc1)NC(=O)[C@H](CC(=O)O)NC(=O)[C@H](CO)NC(=O)[C@@H](NC(=O)[C@](C)(Cc1ccccc1F)NC(=O)[C@@H](NC(=O)CNC(=O)[C@H](CCC(N)=O)NC(=O)C(C)(C)NC(=O)[C@@H](N)Cc1ccc(O)cc1)[C@@H](C)O)[C@@H](C)O)[C@@H](C)CC)C(=O)N[C@@H](CCC(=O)O)C(=O)N[C@@H](Cc1ccc(O)cc1)C(=O)N[C@@H](CC(C)C)C(=O)N[C@@H](CCC(=O)O)C(=O)N[C@@H](CCC(=O)O)C(=O)NCC(=O)NCC(=O)N1CCC[C@H]1C(=O)N[C@@H](CO)C(=O)N[C@@H](CO)C(=O)NCC(=O)N[C@@H](CCC(=O)O)C(=O)N1CCC[C@H]1C(=O)N1CCC[C@H]1C(=O)N1CCC[C@H]1C(=O)N[C@@H](CCC(=O)O)C(N)=O [Example 487] (H-Y[Aib]QGT[αMePhe(2-F)]TSD[4Pal]SI[αMeL]LDKK([AEEA-γGlu-C18 diacid])AQ[Aib]AFIEYLEEGGPSSGEPPPE-NH2) | 27.7 | 477 | 2.26 | – | – | – | 0.0286 | 5.36 | 0.639 | – |
| H-Y[Aib]QGT[αMePhe(2-F)]TSD[4Pal]SILLDKK([γGlu-γGlu-C18 diacid])AQ[Aib]AFIE[4Pal]LEEGGPSSGAPPPSGTE-NH2 [Example 550] | 262 | 996 | 5.94 | – | – | – | 0.0876 | 11.7 | 2.12 | – |
| H-Y[Aib]QGT[αMePhe(2-F)]TSD[4Pal]SI[αMeL]LDKK([γGlu-γGlu-C18 diacid])AQ[Aib][Orn]FIEYLAEGGPSSGEPPPSGSEE-NH2 [Example 636] | – | – | – | – | – | – | – | – | – | EC50 (hGLP-1R [1]; [7]): 36.6 nM; EC50 (hGIPR [2]; [8]): 0.054 nM; EC50 (human GcgR; [7]): 935 nM; EC50 (hGcgR; [8]): 9.28 nM; EC50 (hGLP-1R [3]; [8]): 0.504 nM; EC50 (hGIPR [4]; [7]): 4.3 nM |
